{"source": "paper PMC7804203", "about": "“Targeting adaptor protein SLP76 of RAGE as a therapeutic approach for lethal sepsis” (Nature Communications, 2021)", "format_in_all_cases": "cell-based", "key": {"[1]": {"system": "interaction between RAGE and SLP76 in HEK293 cells", "experiment": "Co-IP of Flag-SLP76 with HA-RAGE (HA-tag antibody) in HEK293 cells treated with AGEs", "settings": "Fig. 1c–e", "protocol": "(§1) HEK293 cells (3 × 10^5) were cultured to a confluence of 80–90% in a 60 mm dish. Then, cells were transfected with 2 μg of total DNA by using 6 μl GeneJammer reagent (#204130, Agilent, Santa Clara, CA, USA) mixed with Opti-MEM (200 μl final volume) and were then incubated for 5 min at room temperature. RAW264.7 cells (1 × 10^5) were transfected with control siRNA, siRNA targeting AGER or siRNA targeting SLP76 using HiPerFect reagent (#301705, Qiagen, Hilden, Germany). SiRNA diluted in HiPerFect transfection reagent was premixed with Opti-MEM medium at room temperature for 5 min and incubated with cells in a 24-well plate for 48 h.\nAfter transfection for 24 h, HEK293 cells were treated with AGEs at the indicated times and doses. Then, cells were collected and lysed with lysis buffer, and protein was quantitated with a bicinchoninic acid (BCA) kit (#23227, Thermo Fisher Scientific, Waltham, MA, USA). Total input protein (500 µg) was incubated with anti-FLAG M2 beads or anti-HA affinity gel overnight at 4 °C. After brief centrifugation, samples were washed five times with lysis buffer containing 0.1% Tween 20. Samples were then resolved by SDS-PAGE and subjected to western blotting with a specific antibody against the HA or Flag tag."}, "[2]": {"system": "p38 MAPK phosphorylation, RAW264.7 cells", "experiment": "Western blot, p38 MAPK phosphorylation in RAW264.7 cells treated with AGEs", "settings": "15 min (P < 0.05)", "protocol": "(§2) Cultured cells in 6-well plates were harvested, washed twice with PBS, and lysed for 30 min on ice in 150 μl of cell lysis buffer (#9803) from CST (Boston, MA, USA) containing 1 mM PMSF and 2 μg/ml leupeptin. Proteins were quantified with the BCA method. Protein samples were resolved by 10% SDS-PAGE, transferred to a nitrocellulose (NC) membrane (#GE10600002), and blocked for 1 h with 5% nonfat milk in Tris-buffered saline containing 0.1% Tween 20 (TBST) at room temperature. After incubation with a specific primary antibody overnight at 4 °C, the membrane was washed with TBST three times. Then, the membrane was incubated with a secondary antibody for 1 h at room temperature. Enhanced chemiluminescence (ECL) (#32109, Thermo Fisher Scientific, Waltham, MA, USA) was used to visualize the protein bands, and images were acquired in a ChemiDoc™ Imaging System (Bio-Rad, Hercules, CA, USA). Each experiment was repeated at least three times."}, "[3]": {"system": "ERK1/2 phosphorylation, RAW264.7 cells", "experiment": "Western blot, ERK1/2 phosphorylation in RAW264.7 cells treated with AGEs", "settings": "15 min (P < 0.05)", "protocol": "as §2"}, "[4]": {"system": "JNKs phosphorylation, RAW264.7 cells", "experiment": "Western blot, JNK phosphorylation in RAW264.7 cells treated with AGEs", "settings": "AGEs 100 μg/ml; for JNK phosphorylation: Supplementary Fig. 4, single runs Exp1-Exp3", "protocol": "as §2"}, "[5]": {"system": "p38 MAPK phosphorylation, HEK293 cells", "experiment": "Western blot, p38 MAPK phosphorylation in transfected HEK293 cells treated with AGEs", "settings": "Fig. 4b, AGEs 100 μg/ml, 15 min, single runs Exp1-Exp3", "protocol": "as §1, §2"}, "[6]": {"system": "ERK1/2 phosphorylation, HEK293 cells", "experiment": "Western blot, ERK1/2 phosphorylation in transfected HEK293 cells treated with AGEs", "settings": "Fig. 4c, AGEs 100 μg/ml, 15 min, single runs Exp1-Exp3", "protocol": "as §1, §2"}, "[7]": {"system": "IKKα/β phosphorylation, HEK293 cells", "experiment": "Western blot, IKKα/β phosphorylation in transfected HEK293 cells treated with AGEs", "settings": "Fig. 4d, AGEs 100 μg/ml, 15 min, single runs Exp1-Exp3", "protocol": "as §1, §2"}, "[8]": {"system": "p38 MAPK phosphorylation, RAW264.7 cells", "experiment": "Western blot, AGE-induced p38 MAPK activation after TAT-fused peptides", "settings": "AGEs+, relative to Ctrl without AGEs = 1", "protocol": "as §2"}, "[9]": {"system": "ERK1/2 phosphorylation, RAW264.7 cells", "experiment": "Western blot, AGE-induced ERK1/2 activation after TAT-fused peptides", "settings": "AGEs+, relative to Ctrl without AGEs = 1", "protocol": "as §2"}, "[10]": {"system": "IKKα/β phosphorylation, RAW264.7 cells", "experiment": "Western blot, AGE-induced IKKα/β activation after TAT-fused peptides", "settings": "AGEs+, relative to Ctrl without AGEs = 1", "protocol": "as §2"}}, "note": "Where “and” joins values, the source holds several entries; their conditions need not be identical. Identical values can stand only once."}
{"substance": "AGEs: AGEs-BSA (#2221-10) purchased from Biovision; advanced glycation end products, RAGE ligand", "values": [{"measurement": "RAGE/SLP76 binding after exposure to AGEs", "setting": "[1]", "value": "dose- and time-dependent"}, {"measurement": "Phosphorylation of p38 MAPK", "setting": "[2]", "value": "increased significantly"}, {"measurement": "Phosphorylation of ERK1/2", "setting": "[3]", "value": "increased significantly"}, {"measurement": "Phosphorylation of JNKs", "setting": "[4]; 0-240 min, n=3", "value": "no significant difference between groups"}, {"measurement": "JNK phosphorylation", "setting": "[4]; 5 min", "value": "0.9831 and 1.298 and 1.325"}, {"measurement": "JNK phosphorylation", "setting": "[4]; 15 min", "value": "1.062 and 0.8245 and 0.7215"}, {"measurement": "JNK phosphorylation", "setting": "[4]; 30 min", "value": "1.133 and 1.03 and 0.8721"}, {"measurement": "JNK phosphorylation", "setting": "[4]; 60 min", "value": "1.061 and 0.95 and 0.8845"}, {"measurement": "JNK phosphorylation", "setting": "[4]; 90 min", "value": "1.254 and 1.05 and 0.7684"}, {"measurement": "JNK phosphorylation", "setting": "[4]; 120 min", "value": "1.217 and 0.98 and 0.8649"}, {"measurement": "JNK phosphorylation", "setting": "[4]; 240 min", "value": "1.277 and 0.91 and 0.7954"}, {"measurement": "phosphorylated p38 MAPK", "setting": "[5]; RAGE overexpressed", "value": "1.6247 and 1.965 and 1.83"}, {"measurement": "phosphorylated p38 MAPK", "setting": "[5]; RAGE+SLP76 overexpressed", "value": "2.026 and 2.548 and 2.612"}, {"measurement": "phosphorylated p38 MAPK", "setting": "[5]; SLP76 overexpressed", "value": "1.3753 and 1.591 and 1.725"}, {"measurement": "phosphorylated p38 MAPK", "setting": "[5]; control vector", "value": "1.2576 and 1.45 and 1.104"}, {"measurement": "phosphorylated ERK1/2", "setting": "[6]; RAGE overexpressed", "value": "4.032 and 4.674 and 4.165"}, {"measurement": "phosphorylated ERK1/2", "setting": "[6]; RAGE+SLP76 overexpressed", "value": "5.962 and 6.497 and 6.322"}, {"measurement": "phosphorylated ERK1/2", "setting": "[6]; SLP76 overexpressed", "value": "3.146 and 2.87 and 3.315"}, {"measurement": "phosphorylated ERK1/2", "setting": "[6]; control vector", "value": "3.0116 and 3.25 and 2.795"}, {"measurement": "phosphorylated IKKα/β", "setting": "[7]; RAGE overexpressed", "value": "12.7634 and 9.791 and 10.05"}, {"measurement": "phosphorylated IKKα/β", "setting": "[7]; RAGE+SLP76 overexpressed", "value": "21.1403 and 18.74 and 17.6458"}, {"measurement": "phosphorylated IKKα/β", "setting": "[7]; SLP76 overexpressed", "value": "5.321 and 6.4 and 5.551"}, {"measurement": "phosphorylated IKKα/β", "setting": "[7]; control vector", "value": "8.805 and 7.3 and 6.5457"}, {"measurement": "Relative p38 MAPK phosphorylation, Supplementary figure 11c", "setting": "[8]; Exp1", "value": 2.6013}, {"measurement": "Relative p38 MAPK phosphorylation, Supplementary figure 11c", "setting": "[8]; Exp2", "value": 2.501}, {"measurement": "Relative p38 MAPK phosphorylation, Supplementary figure 11c", "setting": "[8]; Exp3", "value": 3.172}, {"measurement": "Relative ERK1/2 phosphorylation, Supplementary figure 11d", "setting": "[9]; Exp1", "value": 3.946}, {"measurement": "Relative ERK1/2 phosphorylation, Supplementary figure 11d", "setting": "[9]; Exp2", "value": 5.325}, {"measurement": "Relative ERK1/2 phosphorylation, Supplementary figure 11d", "setting": "[9]; Exp3", "value": 6.025}, {"measurement": "Relative IKKα/β phosphorylation, Supplementary figure 11e", "setting": "[10]; Exp1", "value": 3.559}, {"measurement": "Relative IKKα/β phosphorylation, Supplementary figure 11e", "setting": "[10]; Exp2", "value": 4.547}, {"measurement": "Relative IKKα/β phosphorylation, Supplementary figure 11e", "setting": "[10]; Exp3", "value": 6.152}]}
